Assay results reported in the NIST ThermoML archive (doi:10.1016/j.jct.2013.05.003).
Numbers after ± are expanded uncertainties.

Tests used:
[1] = 101.3 kPa, Liquid, Sing-around technique in a fixed-path interferometer
[2] = xn = mol fraction of the nth substance listed; settings: 283.15 K; 101.3 kPa; Liquid; fixed-path interferometer; x2 = 0

speed of sound ([1]; 283.15 K)	speed of sound ([1]; 288.15 K)	speed of sound ([1]; 293.15 K)	speed of sound ([1]; 298.15 K)	speed of sound ([1]; 303.15 K)	speed of sound [2]	SMILES
1386.4 ± 1.6 m/s	1364.2 ± 1.6 m/s	1342 ± 1.6 m/s	1321.2 ± 1.6 m/s	1300.4 ± 1.6 m/s		CCOCCCN [3-ethoxy-1-propanamine]
1447.3 ± 1.3 m/s						O [water]
					1447.3 ± 1.3 m/s	O [water] + CCOCCCN
